Measurements from patent publication US10259856B2, “Protease stabilized acylated insulin analogues” (priority 2008, dated 2019).

What was measured:
[1] = target: T1, human insulin receptor (IR-A) (Homo sapiens, UniProt P06213); test: Insulin receptor affinity, SPA antibody capture assay (0% HSA); type: binding; conditions: affinity relative to human insulin
Experimental: (§1) The affinity of the acylated insulin analogues of this invention for the human insulin receptor is determined by a SPA assay (Scintillation Proximity Assay) microtiterplate antibody capture assay. […] Reagent mix for a single Packard Optiplate (Packard No. 6005190) is composed of 2.4 μl of a 1:5000 diluted purified recombinant human insulin receptor (either with or without exon 11), an amount of a stock solution of A14Tyr[^125I]-human insulin corresponding to 5000 cpm per 100 μl of reagent mix, 12 μl of a 1:1000 dilution of F12 antibody, 3 ml of SPA-beads and binding buffer to a total of 12 ml. A total of 100 μl reagent mix is then added to each well in the Packard Optiplate and a dilution series of the insulin derivative is made in the Optiplate from appropriate samples. The samples are then incubated for 16 hours while gently shaken. The phases are the then separated by centrifugation for 1 min and the plates counted in a Topcounter. The binding data were fitted using the nonlinear regression algorithm in the GraphPad Prism 2.01 (GraphPad Software, San Diego, Calif.) and affinities are expressed relative (in percentage (%)) to the affinity of human insulin.

[2] = Hydrophobicity by reverse phase HPLC under isocratic conditions; type: physicochemical; conditions: isocratic RP-HPLC, pH 7.3; human insulin as reference (k'rel = 1)
Experimental: The void time of the HPLC system, t0, is determined by injecting 5 μl of 0.1 mM NaNO3. Running conditions:
Column: Lichrosorb RP-C18, 5 μm, 4×250 mm
Buffer A: 0.1 M natrium phosphate pH 7.3, 10 vol % CH3CN

[3] = target: T1, human insulin receptor (IR-A); test: Insulin receptor affinity, SPA assay with binding buffer containing 4.5% HSA; conditions: 4.5% HSA in binding buffer; affinity relative to human insulin
Experimental: as §1

T1 sequence (P06213 28-746 isoform P06213-2 limits assumed): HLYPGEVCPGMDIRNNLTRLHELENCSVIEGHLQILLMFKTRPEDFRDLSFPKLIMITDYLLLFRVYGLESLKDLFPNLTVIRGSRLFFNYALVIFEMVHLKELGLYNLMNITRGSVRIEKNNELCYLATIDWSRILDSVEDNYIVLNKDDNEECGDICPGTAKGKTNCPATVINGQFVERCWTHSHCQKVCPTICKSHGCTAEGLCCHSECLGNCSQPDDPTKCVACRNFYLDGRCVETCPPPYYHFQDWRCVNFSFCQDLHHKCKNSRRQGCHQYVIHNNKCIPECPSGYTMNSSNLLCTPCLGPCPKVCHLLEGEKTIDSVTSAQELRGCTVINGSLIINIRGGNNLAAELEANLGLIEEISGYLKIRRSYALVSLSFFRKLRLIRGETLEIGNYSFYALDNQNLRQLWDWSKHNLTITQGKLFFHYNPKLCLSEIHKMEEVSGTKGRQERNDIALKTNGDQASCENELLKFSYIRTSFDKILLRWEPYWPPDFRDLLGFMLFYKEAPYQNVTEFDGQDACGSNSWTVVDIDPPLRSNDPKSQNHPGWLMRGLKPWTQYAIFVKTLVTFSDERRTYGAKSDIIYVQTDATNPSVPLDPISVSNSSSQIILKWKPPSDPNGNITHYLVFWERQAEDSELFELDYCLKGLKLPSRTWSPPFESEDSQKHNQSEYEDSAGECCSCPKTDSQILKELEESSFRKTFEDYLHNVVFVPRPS
T1 sequence (P06213 763-1382 partner limits assumed): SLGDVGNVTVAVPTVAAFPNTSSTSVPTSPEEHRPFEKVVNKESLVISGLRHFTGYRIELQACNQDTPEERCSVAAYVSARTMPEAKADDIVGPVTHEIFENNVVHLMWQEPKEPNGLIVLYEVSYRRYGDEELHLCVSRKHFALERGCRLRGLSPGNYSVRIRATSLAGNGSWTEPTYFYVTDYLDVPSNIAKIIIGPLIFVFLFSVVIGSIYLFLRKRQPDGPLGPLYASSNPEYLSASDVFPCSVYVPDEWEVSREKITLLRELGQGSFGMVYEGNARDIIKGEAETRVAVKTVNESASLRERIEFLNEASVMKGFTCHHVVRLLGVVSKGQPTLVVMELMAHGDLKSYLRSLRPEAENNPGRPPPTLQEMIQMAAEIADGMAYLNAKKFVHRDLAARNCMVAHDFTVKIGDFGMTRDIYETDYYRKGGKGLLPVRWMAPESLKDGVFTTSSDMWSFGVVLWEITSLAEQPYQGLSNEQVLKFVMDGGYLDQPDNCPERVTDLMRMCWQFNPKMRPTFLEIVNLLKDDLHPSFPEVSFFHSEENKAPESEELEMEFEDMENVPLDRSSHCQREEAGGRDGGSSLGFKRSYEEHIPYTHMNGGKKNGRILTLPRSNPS

A14E, B25H, B29K(N^ε3-Carboxy-5-octadecanedioylaminobenzoyl), desB30 Human Insulin [Example 4]
Relative IR-A affinity (@ 0% HSA) (%) [1]: 3.4%
Relative hydrophobicity, k'relderiv [2]: .48

A14E, B25H, B29K(N^ε4-([4-({19-Carboxynonadecanoylamino}methyl)trans-cyclohexane-carbonyl-]-γGlu-γGlu), desB30 Human Insulin [Example 12]
Relative IR-A affinity (@ 0% HSA) (%) [1]: 1.7%
Relative hydrophobicity, k'relderiv [2]: .94

A14E, B25H, B29K(N^ε4-([4-({19-Carboxynonadecanoylamino}methyl)trans-cyclohexanecarbonyl]-γGlu), desB30 Human Insulin [Example 7]
Relative IR-A affinity (@ 0% HSA) (%) [1]: 2.1%
Relative hydrophobicity, k'relderiv [2]: 2.78

A14E, B25H, B29K(N^ε (N-Octadecandioyl-N-carboxymethyl)-beta-alanyl), desB30 Human Insulin [Example 6]
Relative IR-A affinity (@ 0% HSA) (%) [1]: 2.6%
Relative IR-A affinity (@ 4.5% HSA) (%) [3]: .04%

A14E, B25H, B29K(N^ε(5-Eicosanedioylaminoisophthalic acid)), desB30 Human Insulin [Example 47]
Relative IR-A affinity (@ 0% HSA) (%) [1]: 1.2%
Relative IR-A affinity (@ 4.5% HSA) (%) [3]: 0.10%

A14E, B25H, B29K(N^εEicosanedioyl-Aoc), desB30 Human Insulin [Example 53]
Relative IR-A affinity (@ 0% HSA) (%) [1]: 2.3%
Relative IR-A affinity (@ 4.5% HSA) (%) [3]: 0.03%

A14E, B25H, B29K(N^εMyristyl), desB30 Human Insulin [Example 10]
Relative IR-A affinity (@ 0% HSA) (%) [1]: 9.5%
Relative hydrophobicity, k'relderiv [2]: 14.60

A14E, B25H, B29K(N^εOctadecanedioyl-γGlu-Abu-Abu-Abu-Abu), desB30 Human Insulin [Example 41]
Relative IR-A affinity (@ 0% HSA) (%) [1]: 1.6%
Relative IR-A affinity (@ 4.5% HSA) (%) [3]: .31%

A14E, B25H, B29K(N^εeicosanedioyl-γGlu-(3-(2-{2-[2-(2-aminoethoxy)ethoxy]ethoxy}ethoxy)propionyl-γGlu), desB30 Human Insulin [Example 17]
Relative IR-A affinity (@ 0% HSA) (%) [1]: .9%
Relative hydrophobicity, k'relderiv [2]: .57

A14E, B25H, B29K(N^εoctadecandioyl-γGlu-PEG7), desB30 Human Insulin [Example 15]
Relative IR-A affinity (@ 0% HSA) (%) [1]: 1.9%
Relative hydrophobicity, k'relderiv [2]: .43

A14E, B25H, B29K(N^ε—N-octadecandioyl-N-(2-carboxyethyl)glycyl), desB30 Human Insulin [Example 5]
Relative IR-A affinity (@ 0% HSA) (%) [1]: 2.5%
Relative hydrophobicity, k'relderiv [2]: .23
